Results on two compounds are retold here after US11220503B2, “Phthalazine derivatives, preparation method, pharmaceutical composition and usage thereof” (Shanghai SIMR Biotech Co., Ltd., priority 2015, dated 2022).

For the experiment, the target named is T1, α5β3γ2 receptor (Homo sapiens, UniProt P18507+P31644).
T1 construct: expressed in transfected cells; host or cells: HEK-293 (stably transfected)
The experiment in a line: Cell level screening: whole cell patch clamp, inverse agonist efficacy. In kind it is cell-based. The following applies: for inverse agonism efficacy of the compound/α5IA inverse agonism efficacy: ratio to α5IA, compound 100 nM. For orientation: Patch clamp records ionic current or voltage across a cell membrane.

Where [1] appears, read: HEK293, compound 100 nM, GABA 0.05-0.1 μM, HEK293 α5β3γ2, clamped at −60 mV, (Ipost-Ipre)*100/Ipre, read-out: inverse agonism efficacy(%).

Where two headings read alike, the source gives them in different places.

T1 sequence (P31644 32-462): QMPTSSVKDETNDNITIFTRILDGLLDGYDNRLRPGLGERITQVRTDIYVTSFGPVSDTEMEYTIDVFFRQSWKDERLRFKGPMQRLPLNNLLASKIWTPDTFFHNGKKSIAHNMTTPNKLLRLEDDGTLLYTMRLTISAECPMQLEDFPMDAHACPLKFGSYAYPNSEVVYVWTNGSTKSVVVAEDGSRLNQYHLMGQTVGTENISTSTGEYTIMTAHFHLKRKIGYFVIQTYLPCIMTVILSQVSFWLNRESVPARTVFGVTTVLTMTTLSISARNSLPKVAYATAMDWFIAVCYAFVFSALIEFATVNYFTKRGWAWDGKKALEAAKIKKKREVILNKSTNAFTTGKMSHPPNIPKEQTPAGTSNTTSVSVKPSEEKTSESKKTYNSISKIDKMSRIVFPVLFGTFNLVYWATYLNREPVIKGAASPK
T1 sequence (P28472 26-473 isoform P28472-2 partner limits assumed): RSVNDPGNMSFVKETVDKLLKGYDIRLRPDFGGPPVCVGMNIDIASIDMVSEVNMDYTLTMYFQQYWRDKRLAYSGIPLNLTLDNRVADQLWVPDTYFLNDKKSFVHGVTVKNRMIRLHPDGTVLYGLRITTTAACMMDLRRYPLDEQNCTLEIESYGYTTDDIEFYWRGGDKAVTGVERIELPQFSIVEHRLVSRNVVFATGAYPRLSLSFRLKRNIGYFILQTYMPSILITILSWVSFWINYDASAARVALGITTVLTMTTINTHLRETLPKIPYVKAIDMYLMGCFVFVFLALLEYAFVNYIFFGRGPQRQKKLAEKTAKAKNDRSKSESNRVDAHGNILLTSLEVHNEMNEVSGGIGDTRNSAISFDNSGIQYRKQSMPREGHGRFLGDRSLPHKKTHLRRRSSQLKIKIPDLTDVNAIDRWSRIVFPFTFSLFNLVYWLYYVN
T1 sequence (P18507 40-475): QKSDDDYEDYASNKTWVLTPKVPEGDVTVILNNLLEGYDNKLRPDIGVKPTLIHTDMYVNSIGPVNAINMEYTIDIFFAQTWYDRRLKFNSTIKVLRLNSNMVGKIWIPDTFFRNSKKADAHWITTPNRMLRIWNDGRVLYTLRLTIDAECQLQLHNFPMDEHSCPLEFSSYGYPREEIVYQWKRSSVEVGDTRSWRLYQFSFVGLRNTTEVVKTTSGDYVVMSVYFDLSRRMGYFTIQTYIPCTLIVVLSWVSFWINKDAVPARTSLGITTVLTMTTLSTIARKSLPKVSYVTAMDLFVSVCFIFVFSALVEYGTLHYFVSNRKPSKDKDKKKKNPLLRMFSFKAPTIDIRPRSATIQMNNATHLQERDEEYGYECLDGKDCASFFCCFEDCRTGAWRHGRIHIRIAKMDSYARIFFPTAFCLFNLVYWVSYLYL

On to `COCCNC(=O)c1ccc(COc2nn3c(-c4cc(C)on4)nnc3c3ccccc23)nc1` [Compound 08, N-(2-methoxyethyl)-6-(((3-(5-methylisoxazol-3-yl)-[1,2,4]triazolo[3,4-a]phthalazin-6-yl)oxy)methyl)nicotinamide], for which the “inverse agonism efficacy of the compound/α5IA inverse agonism efficacy” value was 1.508. Moreover, under setting [1], the inhibition at 0.1 µM was 34%.
With `CCNC(=O)c1ccc(COc2nn3c(-c4cc(C)on4)nnc3c3ccccc23)nc1` [Compound 07, N-ethyl-6-(((3-(5-methylisoxazol-3-yl)-[1,2,4]triazolo[3,4-a]phthalazin-6-yl)oxy)methyl)nicotinamide], the “inverse agonism efficacy of the compound/α5IA inverse agonism efficacy” value was 1.1. For the same compound, the inhibition at 0.1 µM under setting [1] amounted to 24.8%. In addition, the inhibition at 0.01 µM (dose-efficacy, Con. 10 nM, single replicates, read-out: Inverse agonism-Efficacy) amounted to 25.5%. Moreover, the inhibition at 0.05 µM (dose-efficacy, Con. 50 nM, single replicates, read-out: Inverse agonism-Efficacy) was found to be 40%. In addition, the inhibition at 0.1 µM (dose-efficacy, Con. 100 nM, single replicates, read-out: Inverse agonism-Efficacy) came out at 45.8%. For the same compound, the inhibition at 1 µM (dose-efficacy, Con. 1000 nM, single replicates, read-out: Inverse agonism-Efficacy) stood at 39.1%.
